Laboratory results as given in patent publication US20080033017A1, “COMPOSITIONS FOR ENHANCED ACARICIDAL ACTIVITY” (priority 2000, published 2008).
Several values for one entry are separate records, joined by “and”; a condition that tells them apart may be missing. Identical values can stand only once.

Columns and labels:
D. VARIABILIS = assay: Comparative tick control on dogs, D. variabilis, percent control; format: in vivo, Dermacentor variabilis; set-up: concentration or dose not given beside the values
Source text: (§1) The purpose of this study was to was to determine comparative flea and tick control over a 30 day interval of a combination application of a pyrethroid and a chloronicotinyl insecticide applied dermally to dogs. This combination was compared with permethrin alone, imidacloprid alone, fipronil and selamectin. The latter two compounds are present in products that currently carry claims for both tick and flea control
(§2) Thirty-six dogs were divided into six groups of 6 dogs per group. Each dog received a single topically-applied treatment of the either “Kiltix”, a product available from Bayer Corporation containing 45% w/w permethrin, Advantage®, a product available from Bayer Corporation containing 9.1% w/w imidacloprid, a combination of Kiltix and Advantage containing 45% w/w permethrin+9.1% w/w imidacloprid, Top Spot), a product available from Merial containing 9.7% fipronil or Revolution®, a product available from Pfizer Inc. containing 12% w/v selamectin in accordance with the appropriate dose and label instructions for the various product applications. Control dogs remained untreated. All products were provided in the commercial unit dose applicator tubes.
(§3) The dogs were bathed with a mild non-medicated shampoo and thoroughly combed to remove any existing fleas or ticks 7 to 14 days prior to treatment. The dogs were infested with 100 unfed adult ticks (50 Dermacentor variabilis and 50 Rhipiciphalus sanguineus) and 100 unfed adult fleas on Day −3. Live fleas and ticks were counted on Day −1. The dogs were ranked according to total pretreatment live tick counts from highest to lowest. The 36 dogs with the highest counts were selected for the study. Each consecutive group of 6 dogs comprised one block. Treatment was randomly assigned within each block of dogs.
(§4) Each dog was examined visually for fleas and ticks on Days 1, 7, 14, 21, and 28 following treatment. The hair was parted with the thumbs and fingers to count fleas and ticks. Live tick counts were recorded by species. Live ticks only were counted visually on Days 2, 8, 15, 22, and 29. The dogs were combed on Days 3, 9, 16, 23, and 30. All remaining live fleas and ticks were counted and removed.

R. SANGUINEUS = assay: Comparative tick control on dogs, R. sanguineus, percent control; format: in vivo, Rhipicephalus sanguineus; set-up: Percent control R. sanguineus: concentration or dose not given beside the values
Source text: as §1, §2, §3, §4

[1] = system: both species of ticks (D. variabilis and R. sanguineus); assay: Tick control on dogs, both species together; format: in vivo, Dermacentor variabilis and Rhipicephalus sanguineus
Source text: as §1
Thirty-six dogs were divided into six groups of 6 dogs per group. […]
The dogs were bathed with a mild non-medicated shampoo and thoroughly combed to remove any existing fleas or ticks 7 to 14 days prior to treatment. […] Live fleas and ticks were counted on Day −1. […]
Each dog was examined visually for fleas and ticks on Days 1, 7, 14, 21, and 28 following treatment. […] Live tick counts were recorded by species. Live ticks only were counted visually on Days 2, 8, 15, 22, and 29. […] All remaining live fleas and ticks were counted and removed.

FLEAS (Siphoneptera) = assay: Comparative flea control on dogs, percent control; format: in vivo; set-up: Percent control fleas: concentration or dose not given beside the values
Source text: as §1, §2, §3, §4

[2] = Study Day 1, single topical treatment
[3] = Study Day 2, single topical treatment
[4] = Study Day 3, single topical treatment
[5] = Study Day 7, single topical treatment
[6] = Study Day 8, single topical treatment
[7] = Study Day 9, single topical treatment
[8] = Study Day 14, single topical treatment
[9] = Study Day 15, single topical treatment
[10] = Study Day 16, single topical treatment
[11] = Study Day 21, single topical treatment
[12] = Study Day 22, single topical treatment
[13] = Study Day 23, single topical treatment
[14] = Study Day 28, single topical treatment
[15] = Day 1, single topical treatment
[16] = Day 3, single topical treatment
[17] = Day 7, single topical treatment
[18] = Day 9, single topical treatment
[19] = Day 14, single topical treatment
[20] = Day 16, single topical treatment
[21] = Day 21, single topical treatment
[22] = Day 23, single topical treatment
[23] = Day 28, single topical treatment
[24] = Day 30, single topical treatment

SMILES | Percent control D. variabilis (D. VARIABILIS; [2]) | Percent control D. variabilis (D. VARIABILIS; [3]) | Percent control D. variabilis (D. VARIABILIS; [4]) [%] | Percent control D. variabilis (D. VARIABILIS; [5]) [%] | Percent control D. variabilis (D. VARIABILIS; [6]) [%] | Percent control D. variabilis (D. VARIABILIS; [7]) | Percent control D. variabilis (D. VARIABILIS; [8]) [%] | Percent control D. variabilis (D. VARIABILIS; [9]) [%] | Percent control D. variabilis (D. VARIABILIS; [10]) [%] | Percent control D. variabilis (D. VARIABILIS; [11]) [%] | Percent control D. variabilis (D. VARIABILIS; [12]) [%] | Percent control D. variabilis (D. VARIABILIS; [13]) [%] | Percent control D. variabilis (D. VARIABILIS; [14]) [%] | Percent control R. sanguineus (R. SANGUINEUS; [2]) [%] | Percent control R. sanguineus (R. SANGUINEUS; [3]) [%] | Percent control R. sanguineus (R. SANGUINEUS; [4]) | Percent control R. sanguineus (R. SANGUINEUS; [5]) [%] | Percent control R. sanguineus (R. SANGUINEUS; [6]) [%] | Percent control R. sanguineus (R. SANGUINEUS; [7]) [%] | Percent control R. sanguineus (R. SANGUINEUS; [8]) [%] | further results
N#Cc1nn(-c2c(Cl)cc(C(F)(F)F)cc2Cl)c(N)c1[S+]([O-])C(F)(F)F (stereo not drawn) [Fipronil, fipronil] | *92.9% | *100% | 100 | 100 | 100 | 100% | 98.7 | 100 | 100 | 92.7 | 98.7 | 100 | 69.7 | 96.3 | 100 | 100% | 100 | 100 | 100 | 99.4 | Percent control R. sanguineus (R. SANGUINEUS; [9]): 100%; Percent control R. sanguineus (R. SANGUINEUS; [10]): 99.4%; Percent control R. sanguineus (R. SANGUINEUS; [11]): 86.0%; Percent control R. sanguineus (R. SANGUINEUS; [12]): 100%; Percent control R. sanguineus (R. SANGUINEUS; [13]): 100%; Percent control R. sanguineus (R. SANGUINEUS; [14]): 65.3%; onset of tick kill (in words) ([1]; both tick species): early kill, similar to that of the combination of permethrin and imidacloprid; flea kill compared with imidacloprid or the combination (in words) (FLEAS (Siphoneptera)): rate of flea kill equal to that of imidacloprid or the combination of imidacloprid and permethrin; Percent control fleas (FLEAS (Siphoneptera); [15]): 100%; Percent control fleas (FLEAS (Siphoneptera); [16]): 100%; Percent control fleas (FLEAS (Siphoneptera); [17]): 100%; Percent control fleas (FLEAS (Siphoneptera); [18]): 100%; Percent control fleas (FLEAS (Siphoneptera); [19]): 100%; Percent control fleas (FLEAS (Siphoneptera); [20]): 100%; Percent control fleas (FLEAS (Siphoneptera); [21]): 100%; Percent control fleas (FLEAS (Siphoneptera); [22]): 100%; Percent control fleas (FLEAS (Siphoneptera); [23]): 100%; Percent control fleas (FLEAS (Siphoneptera); [24]): 100%; Percent control fleas (FLEAS (Siphoneptera); Day −1 (pretreatment count)): 22.4%
O=[N+]([O-])N=C1NCCN1Cc1ccc(Cl)nc1 [Imidacloprid, 1-[(6-chloro-3-pyridinyl)methyl]-N-nitro-2-imidazolidinimine] | −12.0% | 16.9% | 30.9 | 32.5 | 35.3 | 39.4% | 50.3 | 66.4 | 68.4 | 50.2 | 40.1 | 50.2 | 38.8 | 15.5 | 42.4 | 35.9% | 67.2 | 72.0 | 66.6 | 53.5 | Percent control R. sanguineus (R. SANGUINEUS; [9]): 58.2%; Percent control R. sanguineus (R. SANGUINEUS; [10]): 54.0%; Percent control R. sanguineus (R. SANGUINEUS; [11]): 41.5%; Percent control R. sanguineus (R. SANGUINEUS; [12]): 18.9%; Percent control R. sanguineus (R. SANGUINEUS; [13]): −5.3%; Percent control R. sanguineus (R. SANGUINEUS; [14]): 39.1%; Percent control fleas (FLEAS (Siphoneptera); [15]): 100%; Percent control fleas (FLEAS (Siphoneptera); [16]): 100%; Percent control fleas (FLEAS (Siphoneptera); [17]): 100%; Percent control fleas (FLEAS (Siphoneptera); [18]): 100%; Percent control fleas (FLEAS (Siphoneptera); [19]): 100%; Percent control fleas (FLEAS (Siphoneptera); [20]): 100%; Percent control fleas (FLEAS (Siphoneptera); [21]): 100%; Percent control fleas (FLEAS (Siphoneptera); [22]): 99.6%; Percent control fleas (FLEAS (Siphoneptera); [23]): 98.6%; Percent control fleas (FLEAS (Siphoneptera); [24]): 99.4%; Percent control fleas (FLEAS (Siphoneptera); Day −1 (pretreatment count)): 5.4%; killing of fleas (in words) (FLEAS (Siphoneptera); from day 1 through day 30): killed essentially all of the fleas
CC1(C)C(C=C(Cl)Cl)C1C(=O)OCc1cccc(Oc2ccccc2)c1 (stereo not drawn) [Permethrin] | 36.2% | 53.9% | 75.3 | 95.2 | 96.1 | 97.1% | 91.5 | 92.9 | 96.8 | 90.8 | 85.1 | 89.3 | 79.3 | 72.7 | 75.0 | 85.0% | 99.4 | 100 | 99.0 | 95.2 | Percent control R. sanguineus (R. SANGUINEUS; [9]): 98.9%; Percent control R. sanguineus (R. SANGUINEUS; [10]): 99.4%; Percent control R. sanguineus (R. SANGUINEUS; [11]): 89.4%; Percent control R. sanguineus (R. SANGUINEUS; [12]): 91.7%; Percent control R. sanguineus (R. SANGUINEUS; [13]): 91.5%; Percent control R. sanguineus (R. SANGUINEUS; [14]): 68.6%; time required to approach a 100% killing of ticks ([1]; single topical treatment): 7 days; Percent control fleas (FLEAS (Siphoneptera); [15]): 89.8%; Percent control fleas (FLEAS (Siphoneptera); [16]): 93.9%; Percent control fleas (FLEAS (Siphoneptera); [17]): 79.4%; Percent control fleas (FLEAS (Siphoneptera); [18]): 87.8%; Percent control fleas (FLEAS (Siphoneptera); [19]): 71.9%; Percent control fleas (FLEAS (Siphoneptera); [20]): 65.1%; Percent control fleas (FLEAS (Siphoneptera); [21]): 52.9%; Percent control fleas (FLEAS (Siphoneptera); [22]): 41.9%; Percent control fleas (FLEAS (Siphoneptera); [23]): 43.9%; Percent control fleas (FLEAS (Siphoneptera); [24]): 7.7%; Percent control fleas (FLEAS (Siphoneptera); Day −1 (pretreatment count)): 1.5%; killing of fleas (in words) (FLEAS (Siphoneptera); from day 1 through day 21): some killing effect on fleas
CO[C@H]1C[C@H](O[C@@H]2/C(C)=C/C[C@@H]3C[C@@H](C[C@]4(CC[C@H](C)[C@@H](C5CCCCC5)O4)O3)OC(=O)[C@@H]3C=C(C)/C(=N/O)[C@H]4OC/C(=C\C=C\[C@@H]2C)[C@]43O)O[C@@H](C)[C@@H]1O [Selamectin, selamectin] | 26.2% | 46.7% | 70.8 | 23.1 | 61.2 | 83% and 83.2% | 16.6 | 32.7 | 46.1 | 2.7 | −0.6 | 24.7 | 0.1 | −13.1 | 48.5 | 87% and 87.4% | 83.9 | 83.6 | 95.6 | 21.5 | Percent control R. sanguineus (R. SANGUINEUS; [9]): 46.0%; Percent control R. sanguineus (R. SANGUINEUS; [10]): 70.9%; Percent control R. sanguineus (R. SANGUINEUS; [11]): −7.0%; Percent control R. sanguineus (R. SANGUINEUS; [12]): −2.2%; Percent control R. sanguineus (R. SANGUINEUS; [13]): 8.2%; Percent control R. sanguineus (R. SANGUINEUS; [14]): −16.0%; tick killing of R. sanguineus (in words) (R. SANGUINEUS; by day 16 post application): negligent; flea kill compared with imidacloprid or the combination (in words) (FLEAS (Siphoneptera)): not as effective as either imidacloprid or the combination of imidacloprid and permethrin; Percent control fleas (FLEAS (Siphoneptera); [15]): 87.3%; Percent control fleas (FLEAS (Siphoneptera); [16]): 100%; Percent control fleas (FLEAS (Siphoneptera); [17]): 100%; Percent control fleas (FLEAS (Siphoneptera); [18]): 100%; Percent control fleas (FLEAS (Siphoneptera); [19]): 99.7%; Percent control fleas (FLEAS (Siphoneptera); [20]): 100%; Percent control fleas (FLEAS (Siphoneptera); [21]): 99.8%; Percent control fleas (FLEAS (Siphoneptera); [22]): 100%; Percent control fleas (FLEAS (Siphoneptera); [23]): 86%; Percent control fleas (FLEAS (Siphoneptera); [24]): 98%; Percent control fleas (FLEAS (Siphoneptera); Day −1 (pretreatment count)): 15.1%; time required to demonstrate a significant killing of fleas (FLEAS (Siphoneptera); single topical treatment): 3 days
